Experimental findings from US20040023972A1, “Use of substituted imidazo[1,2-a]-pyridin-, -pyrimidin-and-pyrazin-3-yl-amine derivatives in the preparation of medicaments for inhibiting NOS” (Gruenenthal GmbH, priority 2000, published 2004) are described below.

For one experiment, the target named is NOS (Rattus norvegicus, UniProt P29476). The experiment can be described thus: Citrulline assay (Bredt and Snyder). The class given is biochemical. How it is done: This assay was carried out as described by D. S. Bredt and S. H. Snyder (Proc. Natl. Acad. Sci. USA (1990), 87, 682-685).
In the next experiment the target is T1, NO synthase (Rattus norvegicus, UniProt P29476).
T1 construct: the supernatant was then removed by decantation and frozen in portions at −80° C; from tissue; host or cells: rat cerebellum, 20,000 g supernatant of homogenate
The experiment can be described thus: HTS-NOS assay (NOS assay): conversion of radioactive arginine, cation-exchanger filter plate. As to conditions: for inhibition at 10 µM: read-out: HTS-NOS assay: % inhibition (10 μM). Format: biochemical. The method, boiled down: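 Rat cerebellum supernatant as NOS source, incubated with radiolabelled arginine plus cofactors including NADPH at 25 °C for 5-60 min depending on enzyme activity. Unconverted arginine was trapped on a cation-exchange filter plate, citrulline washed out, and bound arginine counted by scintillation; % inhibition versus no-compound reactions.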

Structures can show the parent of a compound that is named as a salt.

Compound `Cc1cc(C)n2c(NC3CCCCC3)c(-c3ccncc3)nc2c1` [Example 295, Cyclohexyl-(5,7-dimethyl-2-pyridin-4-yl-imidazo[1,2-a]pyridin-3-yl)-amine; hydrochloride] gave an IC50 at NOS of 9.2 µM. This lies in the single-digit micromolar range.

With `Cc1cc(C)n2c(NC(C)(C)CC(C)(C)C)c(-c3ccco3)nc2c1` [Example 296, (2-Furan-2-yl-5,7-dimethyl-imidazo[1,2-a]-pyridin-3-yl)-(1,1,3,3-tetramethyl-butyl)-amine; hydrochloride], the midpoint of inhibition on NOS, the IC50, lay at 2.5 µM. On the same count and under the same terms, as for `Cc1ccn2c(NC(C)(C)CC(C)(C)C)c(-c3ccccc3F)nc2c1` [Example 298, [2-(2-Fluorophenyl)-7-methyl-imidazo[1,2-a]pyridin-3-yl]-(1,1,3,3-tetramethyl-butyl)-amine; hydrochloride], the figure is 4.3 µM.

`Cc1ccn2c(NC3CCCCC3)c(-c3ccccc3C(F)(F)F)nc2c1` [Example 292, Cyclohexyl-[7-methyl-2-(2-trifluorO-methyl-phenyl)-imidazo[1,2-a]pyridin-3-yl]-amine; hydrochloride] gave a 50% inhibitory concentration (IC50) against NOS of 2.4 µM. As to “[6-(acetyl-{7-methyl-2-[5-(2-nitro-phenyl)-furan-2-yl]-imidazo[1,2-a]pyridin-3-yl}-amino)-hexyl]-methylidyne-ammonium [Example 215]”, the “HTS-NOS assay: % inhibition (10 μM)” value at NO synthase (10 μM) is reported as 50%.

As for `COC(=O)CNc1c(C2CCCCC2)nc2cc(C)cc(C)n12` [Example 142, (2-Cyclohexyl-5,7-dimethyl-imidazo[1,2-a]-pyridin-3-ylamino)-acetic acid methyl ester], the inhibition at 10 µM on NO synthase stood at 59%. The same measure, in the same setting: the result for `CC(=O)N(c1c(-c2ccc(C(=O)O)o2)nc2ccc(C)cn12)C(C)(C)CC(C)(C)C` [Example 282, 5-{3-[acetyl-(1,1,3,3-tetramethyl-butyl)-amino]-6-methyl-imidazo[1,2-a]pyridin-2-yl}-furan-2-carboxylic acid] reads 51%; that for `COC(=O)CNc1c(C)nc2cc(C)ccn12` [Example 18, (2,7-Dimethyl-imidazo[1,2-a]pyridin-3-ylamino)-acetic acid methyl ester], 50%. Same read-out and setting: as for `CC(=O)N(c1c(-c2ccc(Cl)cc2Cl)nc2cccc(C)n12)C1CCCCC1` [Example 274, N-cyclohexyl-N-[2-(2,4-dichloro-phenyl)-5-methyl-imidazo[1,2-a]pyridin-3-yl]-acetamide], the figure is 64%; as for `CC(=O)N(c1c(-c2ccc(C(=O)O)s2)nc2cnccn12)C(C)(C)CC(C)(C)C` [Example 205, 5-{3-[acetyl-(1,1,3,3-tetramethyl-butyl)-amino]-imidazo[1,2-a]pyrazin-2-yl}-thiophene-2-carboxylic acid], 52%. As to `CC(=O)N(c1c(-c2ccc(Cl)s2)nc2ncccn12)C(C)(C)CC(C)(C)C` [Example 256, N-[2-(5-chloro-thiophen-2-yl)-imidazo[1,2-a]pyrimidin-3-yl]-N-(1,1,3,3-tetramethyl-butyl)-acetamide], on NO synthase, the inhibition at 10 µM was 55%.

As for `Cc1ccccc1-c1nc2c(C)cccn2c1Nc1c(C)cccc1C` [Example 130, (2,6-Dimethyl-phenyl)-(8-methyl-2-o-tolyl-imidazo[1,2-a]pyridin-3-yl)-amine], the inhibition at 10 µM at NO synthase is 58%.

Take `CC(=O)N(c1c(-c2ccco2)nc2cc(C)ccn12)C1CCCCC1` [Example 262, N-cyclohexyl-N-(2-furan-2-yl-7-methyl-imidazo[1,2-a]pyridin-3-yl)-acetamide]: at NO synthase, the inhibition at 10 µM amounted to 54%. On the same count and under the same terms, the result for `CCOc1ccc2ccccc2c1-c1nc2cc(C)ccn2c1N(C(C)=O)C(C)(C)C` [Example 290, N-tert-butyl-N-[2-(2-ethoxy-naphthalen-1-yl)-7-methyl-imidazo[1,2-a]pyridin-3-yl]-acetamide] reads 67%; that for `CC(=O)N(c1c(-c2ccc(C(=O)O)s2)nc2cnccn12)C(C)(C)C` [Example 153, 5-[3-(acetyl-tert-butyl-amino)-imidazo[1,2-a]pyrazin-2-yl]-thiophene-2-carboxylic acid], 78%; that for `COc1cccc(-c2nc3cc(C)cc(C)n3c2N(C(C)=O)C(C)(C)CC(C)(C)C)c1OC` [Example 194, N-[2-(2,3-dimethoxy-phenyl)-5,7-dimethyl-imidazo[1,2-a]pyridin-3-yl]-N-(1,1,3,3-tetramethyl-butyl)-acetamide], 59%. On the same count and under the same terms, as for `CCc1ccn2c(NCc3ccccc3OC)c(-c3ccc(C)o3)nc2c1` [Example 315, [7-Ethyl-2-(5-methyl-furan-2-yl)-imidazo[1,2-a]pyridin-3-yl]-(2-methoxy-benzyl)-amine], the figure is 32%; as for `Cc1cc(C)n2c(NC(C)(C)CC(C)(C)C)c(-c3cc4ccccc4o3)nc2c1` [Example 66, (2-Benzofuran-2-yl-5,7-dimethyl-imidazo[1,2-a]pyridin-3-yl)-(1,1,3,3-tetramethyl-butyl)-amine], 53%. For the compound `COc1ccccc1-c1nc2c(C)cccn2c1N(C(C)=O)C(C)(C)CC(C)(C)C` [Example 210, N-[2-(2-methoxy-phenyl)-8-methyl-imidazo[1,2-a]pyridin-3-yl]-N-(1,1,3,3-tetramethyl-butyl)-acetamide], the inhibition at 10 µM at NO synthase turned out to be 53%. Still for that read-out and setting: as for `COc1ccccc1-c1nc2cc(C)cc(C)n2c1N(C(C)=O)C(C)(C)CC(C)(C)C` [Example 172, N-[2-(2-methoxy-phenyl)-5,7-dimethyl-imidazo[1,2-a]pyridin-3-yl]-N-(1,1,3,3-tetramethyl-butyl)-acetamide], the figure is 62%; as for `CCCCNc1c(C2CCCCC2)nc2cc(C)cc(C)n12` [Example 37, Butyl-(2-cyclohexyl-5,7-dimethyl-imidazo[1,2-a]pyridin-3-yl)-amine], 58%; as for `CC(=O)N(c1c(C)cccc1C)c1c(-c2sccc2Br)nc2cc(C)cc(C)n12` [Example 156, N-[2-(3-bromo-thiophen-2-yl)-5,7-dimethyl-imidazo[1,2-a]pyridin-3-yl]-N-(2,6-dimethyl-phenyl)-acetamide], 74%.
